Assay results taken from patent publication US20240261348A1, “LACTOBACILLUS PLANTARUM-DERIVED VESICLE AND USE THEREOF” (priority 2021, published 2024).

Test system: AMPK (pAMPK) in muscle cells (L6 myotube cells)
Assay: AMPK activation in muscle cells (pAMPK western blotting)
Assay type: cell-based
Experimental: Therefore, an experiment was conducted to evaluate whether Lactobacillus plantarum-derived vesicles (Lp EV) affect cellular aging through AMPK activation in cells. To evaluate AMPK activation according to a concentration of treated Lactobacillus plantarum-derived vesicles in vitro, muscle cells (L6 myotube cells) were treated with the Lactobacillus plantarum-derived vesicles at 0, 0.1, 1, or 10 μg/mL for 1 hour. As a control, insulin (1 μM), which promotes aging and metformin (50 mM), which inhibits aging were used. After treating the cells with the drug, the difference in the amount of pAMPK, which is a key indicator in AMPK signaling, was measured through western blotting. […] To perform BCA quantitative analysis, the 1.5 mL microtube containing 5 μL of the lysed sample supernatant was taken out at room temperature, 20 μL of sterile distilled water was added thereto, and the resulting solution was vortexed and then spun down. […] After reacting in a 37° C. incubator for 30 minutes, absorbance was measured at 562 nm using a SpectraMax M3 microplate reader (Molecular Devices, USA). For western blotting, in the process of tris-glycine SDS-polyacrylamide gel electrophoresis, a 10% gel was prepared, and 50 μg of a protein for each sample was quantified and loaded. […]

Molecule: CN(C)C(=N)N=C(N)N [metformin]
- phosphorylation of AMPK (pAMPK) (metformin 50 mM for 1 hour (FIG. 8)): increased

Molecule: insulin
- phosphorylation of AMPK (pAMPK) (insulin 1 μM for 1 hour (FIG. 8)): inhibited
